Results on four compounds are retold here after patent US7572765B2, “Conformationally constrained parathyroid hormone (PTH) analogs” (The General Hospital Corporation, priority 2001, dated 2009).

Format in all cases: cell-based
Test [1] relates to embryonic mouse metatarsals. Nature of the test: Inhibition of chondrocyte differentiation in embryonic mouse metatarsals (explant assay). As to conditions: for effect on mineralization / chondrocyte differentiation: E15.5 mouse metatarsals, 48 h treatment, PTH(1-34) 0.1 μM, [Aib^1,3,M]PTH(1-14) 1 μM, native PTH(1-14) 2 μM; for expression of the collagen X gene (mRNA in situ hybridization): explanted metatarsals, data not shown. On the procedure:
Inhibition of Chondrocyte Differentiation in Embryonic Mouse Metatarsals. Metatarsals from embryonic day (E) 15.5 mouse embryos were excised and cultured in a 37° C. humidified incubator (5% CO2) in serum -free αXMEM media in 24 well plates. Sixteen hours later, a PTH analog or vehicle was added, and the samples were incubated for an additional 48 h in 37° C. with peptide or vehicle added again at the 24 h time point. At the end of the 64 h incubation period, the samples were fixed with 10% formalin/phosphate-buffered saline, then directly visualized on a dissecting microscope using white light. Sections were processed for in-situ hybridization analysis using ^35S-labeled riboprobes specific for collagen type X mRNA, a developmental marker gene expressed only in hypertrophic chrondrocytes of the growth plate.
Whether or not [Aib^1,3,M]PTH(1-14) activity could be detected in a more intact bone system was studied in an explant assay. An explant assay utilized cartilaginous metatarsal rudiments isolated from E15.5mouse embryos and subsequently cultured in multi-well plates containing serum-free media. A PTH peptide analog or vehicle control, was added to the culture 16 h after explantion, then again at 24 h. The incubation was terminated 24 h later for a total of 48 h of treatment over a 64 h period. In the absence of PTH, chondrocyte differentation occurred, such that by the end of the experiment, dense mineralization was apparent at the bone's mid-section (FIG. 5A). […] These inhibitory effects were consistent with the known capacity of PTHRP to retard chondrocyte differentiation in the growth plate cartilage of developing long bones (Pellegrini, M., et al., Biochemistry 37:12737-12743 (1998)).

The target of test [2] is T1, wild-type human P1R (hP1R-WT) (Homo sapiens, UniProt Q03431).
T1 construct: expressed in transfected cells; host or cells: COS-7 (transient, FuGENE 6)
T1 sequence (Q03431 27-593): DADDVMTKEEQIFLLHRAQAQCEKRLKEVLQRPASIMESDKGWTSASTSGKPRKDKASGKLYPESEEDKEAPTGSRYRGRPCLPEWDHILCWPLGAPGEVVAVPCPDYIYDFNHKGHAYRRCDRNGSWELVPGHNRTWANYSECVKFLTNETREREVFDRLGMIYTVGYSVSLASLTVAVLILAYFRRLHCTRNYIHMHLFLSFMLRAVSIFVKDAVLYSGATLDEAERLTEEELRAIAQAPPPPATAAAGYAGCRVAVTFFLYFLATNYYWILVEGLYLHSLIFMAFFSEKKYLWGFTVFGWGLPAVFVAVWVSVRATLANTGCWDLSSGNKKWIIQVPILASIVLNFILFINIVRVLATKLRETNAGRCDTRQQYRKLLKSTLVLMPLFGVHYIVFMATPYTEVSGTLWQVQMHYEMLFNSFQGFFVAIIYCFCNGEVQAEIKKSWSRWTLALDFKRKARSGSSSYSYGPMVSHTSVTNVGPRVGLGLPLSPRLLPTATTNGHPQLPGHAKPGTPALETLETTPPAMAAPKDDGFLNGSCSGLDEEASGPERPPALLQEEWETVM
Nature of the test: Stimulation of inositol phosphate production (PLC) in COS-7 cells expressing hP1R-WT. The note with it: for PLC EMAX(obs.) / EC50: hP1R-WT; for EC50: dash = no PLC response observed. The method, then:
(§1) Cell Culture. The cell line HKRK-B28 (Takasu, H., et al., J. Bone Miner. Res. 14:11-20 (1999)) was derived from the porcine kidney cell line, LLC-PK1 by stable transfection with plasmid DNA encoding the human P1R and expresses ˜280,000 receptors per cell. These cells, as well as COS-7 cells and SaOS-2-B10 cells, were cultured at […] in T-75 flasks ([…]) in Dulbecco's modified Eagle's medium (DMEM) supplemented with fetal bovine serum (10%), penicillin G (20 units/ml), streptomycin sulfate (20 μg/ml) and amphotericin B (0.05 μg/ml) in a humidified atmosphere containing 5% CO2. Stock solutions of EGTA/trypsin and antibiotics were from GIBCO; fetal bovine serum was from Hyclone Laboratories (Logan, Utah). COS-7 cells sub-cultured in 24-well plates were transfected with plasmid DNA (200 ng per well) encoding the wild-type human P1R or truncated human P1R deleted for residues (24-181) (Shimizu, M., et al., J. Biol. Chem. 275:21836-21843 (2000)) that was purified by cesium chloride/ethidium bromide density gradient centrifugation, and FuGENE 6 transfection reagent (Roche Indianapolis Ind.) according to the manufacturer's recommended procedure. All cells, in 24-well plates, were treated with fresh media and shifted to 33° C. for 12 to 24 h prior to assay.
(§2) Stimulation of Inositol Phosphate Production. COS-7 cells transfected as above with P1R-WT were treated with serum-free, inositol-free DMEM containing 0.1% bovine serum albumin and [^3H]myo-inositol (NEN, Boston, Mass.) (2 μCi/mL) for 16 h prior to assay. At the time of the assay, the cells were rinsed with binding buffer containing LiCl (30 mM) and treated with the same buffer with or without a PTH analog. The cells were then incubated at 37° C. for 40 min, after which the buffer was removed and replaced by 0.5 mL of ice cold 5% trichloroacetic acid solution. After 3 h on ice, the lysate was collected and extracted twice with ethyl ether. The lysate was then applied to an ion exchange column (0.5 mL resin bed) and the total inositol phosphates were eluted as described previously (Berridge, M. J., et al., Biochem. J. 212:473-482 (1983)), and counted in liquid scintillation cocktail.

Test [3] has as its target T2, P1R-delNt, truncated human P1R deleted for residues (24-181) (Homo sapiens, UniProt Q03431).
T2 construct: expressed in transfected cells; host or cells: COS-7 (transient, FuGENE 6)
T2 sequence (Q03431 with tags, fused parts or gaps limits assumed): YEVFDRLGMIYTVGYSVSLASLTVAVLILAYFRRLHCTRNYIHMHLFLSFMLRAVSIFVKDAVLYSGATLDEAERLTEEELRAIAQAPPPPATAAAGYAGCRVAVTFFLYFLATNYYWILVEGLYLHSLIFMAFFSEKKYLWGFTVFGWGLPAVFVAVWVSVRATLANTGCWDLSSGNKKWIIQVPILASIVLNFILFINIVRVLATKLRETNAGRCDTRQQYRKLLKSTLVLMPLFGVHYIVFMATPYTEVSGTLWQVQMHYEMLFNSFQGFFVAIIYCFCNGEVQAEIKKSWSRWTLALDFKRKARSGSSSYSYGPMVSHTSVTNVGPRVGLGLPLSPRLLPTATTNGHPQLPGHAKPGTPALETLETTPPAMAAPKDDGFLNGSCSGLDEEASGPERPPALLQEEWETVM
Nature of the test: Stimulation of inositol phosphate production (PLC) in COS-7 cells expressing hP1R-delNt. The note with it: for increase in inositol phosphate (IP) production relative to the basal level: P1R-delNt. The method, then:
as §1, §2
Thus, the truncated receptor can couple to the PCL signaling pathway when stimulated with the Aib-containing PTH peptide. […] Thus, the Aib-1,3 substitutions enhance the ligand's capacity to stimulate PLC activity with P1R-WT, as well as with P1R-delNt.

Entries after “also recorded” stand apart in the source; their conditions may differ. Square brackets hold non-standard residues; d marks the D form. Peptide text beside a SMILES is read from it. hArg = N=C(N)NCCCC[C@H](N)C(=O)O; Aib = CC(C)(N)C(=O)O

On to `CCCC[C@H](NC(=O)[C@H](CCCNC(=N)N)NC(=O)[C@H](CCC(=O)O)NC(=O)[C@@H](NC(=O)[C@H](CO)NC(=O)[C@H](C)NC(=O)[C@H](CC(C)C)NC(=O)[C@H](Cc1c[nH]cn1)NC(=O)[C@H](CCCCN)NC(=O)CNC(=O)[C@H](CC(C)C)NC(=O)[C@H](CC(N)=O)NC(=O)[C@H](Cc1c[nH]cn1)NC(=O)[C@H](CCCC)NC(=O)[C@H](CC(C)C)NC(=O)[C@H](CCC(N)=O)NC(=O)[C@@H](NC(=O)[C@H](CCC(=O)O)NC(=O)[C@H](CO)NC(=O)[C@@H](NC(=O)[C@H](C)N)C(C)C)[C@@H](C)CC)C(C)C)C(=O)N[C@@H](CCC(N)=O)C(=O)N[C@@H](Cc1c[nH]c2ccccc12)C(=O)N[C@@H](CC(C)C)C(=O)N[C@@H](CCCNC(=N)N)C(=O)N[C@@H](CCCCN)C(=O)N[C@@H](CCCCN)C(=O)N[C@@H](CC(C)C)C(=O)N[C@@H](CCC(N)=O)C(=O)N[C@@H](CC(=O)O)C(=O)N[C@H](C(=O)N[C@@H](Cc1c[nH]cn1)C(=O)N[C@@H](CC(N)=O)C(=O)N[C@@H](Cc1ccc(O)cc1)C(N)=O)C(C)C` [PTH(1-34), [Nle^8,21, Tyr^34]PTH(1-34)amide, reference compound], for which, in test [1], the “effect on mineralization / chondrocyte differentiation” value was “no mineralization was observed; also recorded: inhibited mineralization” and the “expression of the collagen X gene (mRNA in situ hybridization)” value is given as “inhibited expression of the collagen X gene”. The “increase in IP formation” value in test [2] (P1R-WT) is on record as 4 fold. Also, in test [2], the “PLC EMAX(obs.)” value was 4.2 ± 0.6 foldxbasal and the response was half-maximal at 17 ± 2 nM (EC50). The “increase in inositol phosphate (IP) production relative to the basal level” value in test [3] was “inactive”.

Take `CC[C@H](C)[C@H](NC(=O)[C@H](CCC(=O)O)NC(=O)C(C)(C)NC(=O)[C@@H](NC(=O)C(C)(C)N)C(C)C)C(=O)N[C@@H](CCC(N)=O)C(=O)N[C@@H](CC(C)C)C(=O)N[C@@H](CCSC)C(=O)N[C@@H](Cc1c[nH]cn1)C(=O)N[C@@H](CCC(N)=O)C(=O)N[C@@H](CCCCNC(=N)N)C(=O)N[C@@H](C)C(=O)N[C@@H](CCCCN)C(=O)N[C@@H](Cc1c[nH]c2ccccc12)C(N)=O` [[Aib^1,3,M]PTH(1-14), AibValAibGluIleGlnLeuMetHisGlnHarAlaLysTrp] (H-[Aib]V[Aib]EIQLMHQ[hArg]AKW-NH2): in test [1], the “effect on mineralization / chondrocyte differentiation” value was “no mineralization was observed; also recorded: inhibited mineralization” and the “expression of the collagen X gene (mRNA in situ hybridization)” value is on record as “inhibited expression of the collagen X gene”. Moreover, in test [2] (P1R-WT), the “PLC potency, fold more potent than [M]PTH(1-14)” value worked out at 66 fold and the “increase in IP formation” value turned out to be 4 fold. In addition, in test [2], the “PLC EMAX(obs.)” value came to 4.3 ± 0.6 foldxbasal and the EC50 (commonly the concentration giving half of the maximal effect) was found to be 71 ± 9 nM. For the same compound, in test [3], the “increase in inositol phosphate (IP) production relative to the basal level” value is given as ~3 fold. For the same compound, in test [3] (hP1R-delNT), the “PLC EMAX(obs.)” value was 3.1 ± 0.2 foldxbasal. In test [3] (hP1R-delNT, dash = no PLC response observed), this compound gave an EC50 of 130 ± 30 nM.

With `CC[C@H](C)[C@H](NC(=O)[C@H](CCC(=O)O)NC(=O)[C@H](C)NC(=O)[C@@H](NC(=O)[C@H](C)N)C(C)C)C(=O)N[C@@H](CCC(N)=O)C(=O)N[C@@H](CC(C)C)C(=O)N[C@@H](CCSC)C(=O)N[C@@H](Cc1c[nH]cn1)C(=O)N[C@@H](CCC(N)=O)C(=O)N[C@@H](CCCCNC(=N)N)C(=O)N[C@@H](C)C(=O)N[C@@H](CCCCN)C(=O)N[C@@H](Cc1c[nH]c2ccccc12)C(N)=O` [[M]PTH(1-14), [Ala^3,12,Gln^10,Har^11,Trp^14]PTH(1-14)amide, reference compound] (H-AVAEIQLMHQ[hArg]AKW-NH2), in test [2] (P1R-WT), the “increase in IP formation” value was 4 fold. Further, the “PLC EMAX(obs.)” value in test [2] came out at 3.9 ± 0.5 foldxbasal. The “increase in inositol phosphate (IP) production relative to the basal level” value in test [3] was “inactive”.

For “H-AVSEIQLMHNLGKH-NH2 [PTH(1-14), reference compound]”, the “effect on mineralization / chondrocyte differentiation” value in test [1] is on record as “no effect could be detected; also recorded: mineralization can be detected”.
